Test results from paper PMC4831050 (Journal of natural products, 2016).
Converted amounts (≈) assume the structure as drawn.

Columns and labels:
Stability in solution = format: physicochemical; details: room temperature
[1] = system: L. donovani promastigotes; test: In vitro killing of L. donovani promastigotes; format: cell-based, Leishmania donovani (strain LV 82); details: Leishmania donovani, 72 h, read-out: L. donovani promastigotes IC50
[2] = In vitro cytotoxicity, sulforhodamine B; format: cell-based; details: human
[3] = system: human farnesyl diphosphate synthase (FPPS); details: cited from earlier work
[4] = system: L. donovani promastigotes; details: isolated from other plant species; cited from earlier work
[5] = system: trypanosomal farnesyl diphosphate synthase (FPPS); details: cited from earlier work
[6] = cited from earlier work
[7] = HT-29 colorectal carcinoma cells

With `Cc1ccc2c3c1CCCC(C)(C)C3C(=O)C(C(C)C)=C2` (racemic) [Compound 4, (±)-11-dehydroxymicrostegiol] the stability in solution (Stability in solution) was “stable in solution at room temperature”.
For `COCC(=O)[C@H]1C(C)(C)CCC[C@]1(C)C1=C(O)C(=O)C(C(C)C)=CC1=O` [Compound 2, (1′S,2′S)-6-hydroxy-4-isopropyl-2′-(2-methoxyacetyl)-1′,3′,3′-trimethyl-[1,1′-bi(cyclohexane)]-3,6-diene-2,5-dione], the IC50 [1] was 2.5 µg/mL (≈ 6.9 µM) and the IC50 at 72 h [2, 7] was 1.6 µg/mL (≈ 4.41 µM).
For `CC(C)C1=CC2=CC(=O)[C@H]3C(C)(C)CCC[C@]3(C)C2=C(O)C1=O` [Compound 10, taxodione], the “inhibition of human farnesyl diphosphate synthase (FPPS)” value [3] is listed as “inhibitor”, the IC50 [1] is listed as 0.5 µg/mL (≈ 1.59 µM) and the IC50 at 72 h [2, 7] is listed as 0.8 µg/mL (≈ 2.54 µM). For the same compound, the “antileishmanial activity against L. donovani promastigotes in vitro” value [4] was “potent antileishmanial agent” and the “inhibition of trypanosomal farnesyl diphosphate synthase (FPPS)” value [5] was “inhibitor”.
For `CC(C)c1cc2c(cc1O)[C@@]1(C)CCCC(C)(C)[C@@H]1CC2` [Compound 12, ferruginol], the IC50 [1] is given as 13.1 µg/mL (≈ 45.7 µM), the IC50 at 72 h [2, 7] is given as 11.3 µg/mL (≈ 39.4 µM) and the “reported antioxidant and gastroprotective activity” value [6] is given as “bioavailable antioxidant and gastroprotective agent”.
Compound `CC(C)c1cc2c(cc1O)[C@@]1(C)CCCC(C)(C)[C@@H]1[C@@H](O)C2=O` [Compound 14, 6α-hydroxysugiol] has an IC50 [1] of 7.8 µg/mL (≈ 24.6 µM) and an IC50 at 72 h [2, 7] of 11.4 µg/mL (≈ 36 µM).
Compound `CC(C)c1cc2c(c(O)c1O)[C@@]1(C)CCCC(C)(C)C1=C(O)C2=O` [Compound 16, 14-deoxycoleon U] has an IC50 [1] of over 20 µg/mL and an IC50 at 72 h [2] of 4.4 µg/mL (≈ 13.3 µM).
